Data published in ChEMBL document CHEMBL4118223, “New TRAP1 and Hsp90 chaperone inhibitors with cationic components: Preliminary studies on mitochondrial targeting” (Bioorg Med Chem Lett, 2018).
Active and inactive are the calls of the source. No cut-off for these calls is given here.

How the values were obtained:
HCT-116 [1] = test: Antiproliferative activity against human HCT116 cells after 24 hrs by MTT assay; assay type: functional, cell-based; details: HCT-116, 24 h
[2] = biological target: T1, Heat shock protein 75 kDa, mitochondrial (Homo sapiens, UniProt Q12931)
T1 sequence (Q12931 whole entry): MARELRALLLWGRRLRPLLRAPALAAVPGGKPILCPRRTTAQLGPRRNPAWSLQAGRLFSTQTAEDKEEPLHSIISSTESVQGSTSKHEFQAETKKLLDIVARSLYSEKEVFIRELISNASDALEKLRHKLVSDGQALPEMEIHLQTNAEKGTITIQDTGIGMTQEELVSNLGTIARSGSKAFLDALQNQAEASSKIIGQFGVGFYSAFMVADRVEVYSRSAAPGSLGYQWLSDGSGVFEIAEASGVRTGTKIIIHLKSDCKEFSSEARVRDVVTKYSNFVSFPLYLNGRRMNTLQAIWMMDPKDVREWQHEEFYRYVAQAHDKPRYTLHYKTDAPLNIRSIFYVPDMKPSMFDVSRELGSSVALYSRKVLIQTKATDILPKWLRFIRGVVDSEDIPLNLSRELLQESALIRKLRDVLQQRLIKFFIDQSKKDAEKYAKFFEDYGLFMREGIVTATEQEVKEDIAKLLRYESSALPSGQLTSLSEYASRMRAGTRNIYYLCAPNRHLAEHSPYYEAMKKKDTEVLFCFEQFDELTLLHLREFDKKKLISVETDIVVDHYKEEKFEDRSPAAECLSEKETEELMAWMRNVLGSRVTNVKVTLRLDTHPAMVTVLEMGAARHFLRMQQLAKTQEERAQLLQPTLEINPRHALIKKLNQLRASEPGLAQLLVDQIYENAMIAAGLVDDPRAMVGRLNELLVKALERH
Description: Inhibition of recombinant human N-terminal His6-tagged TRAP1 (60 to 704 residues) ATPase activity expressed in Escherichia coli BL21-CodonPlus-RIL after overnight incubation by BioMol green dye-based assay

HCT-116 [3] = test: Induction of apoptosis in human HCT116 cells at 0.1 to 10 uM after 24 hrs by FITC/Annexin-V/7-AAD staining-based FACS analysis; assay type: functional, cell-based
[4] = Drug uptake in mitochondria of human HCT116 cells at 1 uM after 12 hrs by mass spectrometric analysis; assay type: ADME; details: hct-116, 12 h
[5] = Drug uptake in cytosol of human HCT116 cells at 1 uM after 12 hrs by mass spectrometric analysis; assay type: ADME, subcellular, HCT-116
HCT-116 [6] = test: Induction of apoptosis in human HCT116 cells at 10 uM after 24 hrs by FITC/Annexin-V/7-AAD staining-based FACS analysis; assay type: functional, cell-based
HCT-116 [7] = test: Induction of apoptosis in human HCT116 cells at 1 to 10 uM after 24 hrs by FITC/Annexin-V/7-AAD staining-based FACS analysis; assay type: functional, cell-based
[8] = biological target: Heat shock protein HSP 90-alpha (Homo sapiens, UniProt P07900); test: Inhibition of FITC-geldanamycin binding to recombinant human HSP90alpha expressed in Escherichia coli by fluorescence anisotropy method

Compound	IC50 (HCT-116 [1]) [µM]	IC50 [2] [µM]	Activity (HCT-116 [3])	Drug uptake [4]	Drug uptake [5]	Activity (HCT-116 [6])	Activity (HCT-116 [7])	IC50 [8] [µM]	Kd [8] [µM]
CCNC(=O)c1noc(-c2cc(C(C)C)c(O)cc2O)c1NC(=O)c1ccc(OC)cc1	0.87	0.4	Active	Not Active					
CCNC(=O)c1noc(-c2cc(C(C)C)c(O)cc2O)c1NC(=O)CCN1CCOCC1		20							
CCNC(=O)c1noc(-c2cc(C(C)C)c(O)cc2O)c1NC(=O)CCCCC(=O)NCCCNCCNCCCN	26.7	5	Active	Active	Not Active				
CCNC(=O)c1noc(-c2cc(C(C)C)c(O)cc2O)c1NC(=O)CCCCC[n+]1ccccc1.[Br-]	7.86	10			Not Active	Active			
COc1cccc(-c2cc(F)ccc2[C@H]2Cc3nc(N)nc(C)c3C(=O)N2)n1		0.2	Active	Not Active					
CCNC(=O)c1noc(-c2cc(C(C)C)c(O)cc2O)c1NC(=O)CCCCCCc1ccc(C(=O)NC(=N)N)cc1	6.17	3		Active	Not Active				
CCNC(=O)c1noc(-c2cc(C(C)C)c(O)cc2O)c1NC(=O)CCCCC[P+](c1ccccc1)(c1ccccc1)c1ccccc1.[Br-]	5.12	25		Active	Not Active	Active			
CCNC(=O)c1noc(-c2cc(C(C)C)c(O)cc2O)c1NC(=O)c1ccc(C(=O)NC(=N)N)cc1	1.32			Active	Not Active		Active	0.021	0.0015
